Laboratory results taken from ChEMBL document CHEMBL1201862, “PubChem BioAssay data set” (2004).
Activity calls are given as the source filed them.

What was measured:
Caspase-3 = target: T1, Caspase-3 (Homo sapiens, UniProt P42574); type: functional;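 also: Dose-response selectivity test against caspase-3 for candidate inhibitors of sentrin-specific proteases (SENPs)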
T1 sequence (P42574 whole entry): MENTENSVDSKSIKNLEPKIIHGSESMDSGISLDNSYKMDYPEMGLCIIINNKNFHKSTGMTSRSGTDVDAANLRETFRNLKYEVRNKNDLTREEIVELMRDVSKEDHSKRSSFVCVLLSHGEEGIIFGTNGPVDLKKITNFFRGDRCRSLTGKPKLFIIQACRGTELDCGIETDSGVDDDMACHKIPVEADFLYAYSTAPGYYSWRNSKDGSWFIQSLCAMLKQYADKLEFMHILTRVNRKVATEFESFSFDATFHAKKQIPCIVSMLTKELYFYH

[1] = target: T2, Sentrin-specific protease 7 (Homo sapiens, UniProt Q9BQF6); type: functional;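 also: Luminescence-based dose-response confirmation of ultra-high-throughput screening hits, measuring inhibition of SENP7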
T2 sequence (Q9BQF6 whole entry): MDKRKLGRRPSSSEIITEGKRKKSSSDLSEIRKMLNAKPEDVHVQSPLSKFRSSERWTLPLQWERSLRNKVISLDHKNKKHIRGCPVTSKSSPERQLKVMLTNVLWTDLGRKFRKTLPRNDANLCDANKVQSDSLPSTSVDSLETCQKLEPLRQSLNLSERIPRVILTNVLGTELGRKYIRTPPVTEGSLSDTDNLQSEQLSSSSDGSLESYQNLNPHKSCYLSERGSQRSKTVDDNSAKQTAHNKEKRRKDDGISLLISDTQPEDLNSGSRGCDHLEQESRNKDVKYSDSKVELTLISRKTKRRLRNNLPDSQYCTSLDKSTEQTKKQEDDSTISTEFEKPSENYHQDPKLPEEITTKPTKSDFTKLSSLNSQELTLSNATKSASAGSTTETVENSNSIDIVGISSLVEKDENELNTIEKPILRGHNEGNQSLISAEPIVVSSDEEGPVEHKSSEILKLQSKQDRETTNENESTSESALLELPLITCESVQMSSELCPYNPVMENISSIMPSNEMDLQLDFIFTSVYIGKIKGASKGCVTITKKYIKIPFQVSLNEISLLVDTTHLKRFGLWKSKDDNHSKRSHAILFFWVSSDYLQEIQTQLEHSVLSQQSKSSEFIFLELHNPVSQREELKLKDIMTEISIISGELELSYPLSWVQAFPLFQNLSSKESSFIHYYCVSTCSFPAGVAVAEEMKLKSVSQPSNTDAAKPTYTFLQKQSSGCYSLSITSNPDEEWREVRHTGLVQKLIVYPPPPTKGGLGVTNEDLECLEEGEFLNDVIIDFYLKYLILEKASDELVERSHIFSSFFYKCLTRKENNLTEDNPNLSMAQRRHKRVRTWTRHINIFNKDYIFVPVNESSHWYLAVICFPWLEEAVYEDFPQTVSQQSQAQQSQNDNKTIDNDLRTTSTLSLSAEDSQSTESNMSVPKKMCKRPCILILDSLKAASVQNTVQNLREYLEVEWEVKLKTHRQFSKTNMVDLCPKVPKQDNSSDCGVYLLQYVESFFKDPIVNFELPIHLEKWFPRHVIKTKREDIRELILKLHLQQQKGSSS

[2] = target: T3, Sentrin-specific protease 6 (Homo sapiens, UniProt Q9GZR1); type: functional;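 also: Luminescence-based dose-response confirmatory assay of SENP6 inhibition, following up an ultra-high-throughput screen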
T3 sequence (Q9GZR1 whole entry): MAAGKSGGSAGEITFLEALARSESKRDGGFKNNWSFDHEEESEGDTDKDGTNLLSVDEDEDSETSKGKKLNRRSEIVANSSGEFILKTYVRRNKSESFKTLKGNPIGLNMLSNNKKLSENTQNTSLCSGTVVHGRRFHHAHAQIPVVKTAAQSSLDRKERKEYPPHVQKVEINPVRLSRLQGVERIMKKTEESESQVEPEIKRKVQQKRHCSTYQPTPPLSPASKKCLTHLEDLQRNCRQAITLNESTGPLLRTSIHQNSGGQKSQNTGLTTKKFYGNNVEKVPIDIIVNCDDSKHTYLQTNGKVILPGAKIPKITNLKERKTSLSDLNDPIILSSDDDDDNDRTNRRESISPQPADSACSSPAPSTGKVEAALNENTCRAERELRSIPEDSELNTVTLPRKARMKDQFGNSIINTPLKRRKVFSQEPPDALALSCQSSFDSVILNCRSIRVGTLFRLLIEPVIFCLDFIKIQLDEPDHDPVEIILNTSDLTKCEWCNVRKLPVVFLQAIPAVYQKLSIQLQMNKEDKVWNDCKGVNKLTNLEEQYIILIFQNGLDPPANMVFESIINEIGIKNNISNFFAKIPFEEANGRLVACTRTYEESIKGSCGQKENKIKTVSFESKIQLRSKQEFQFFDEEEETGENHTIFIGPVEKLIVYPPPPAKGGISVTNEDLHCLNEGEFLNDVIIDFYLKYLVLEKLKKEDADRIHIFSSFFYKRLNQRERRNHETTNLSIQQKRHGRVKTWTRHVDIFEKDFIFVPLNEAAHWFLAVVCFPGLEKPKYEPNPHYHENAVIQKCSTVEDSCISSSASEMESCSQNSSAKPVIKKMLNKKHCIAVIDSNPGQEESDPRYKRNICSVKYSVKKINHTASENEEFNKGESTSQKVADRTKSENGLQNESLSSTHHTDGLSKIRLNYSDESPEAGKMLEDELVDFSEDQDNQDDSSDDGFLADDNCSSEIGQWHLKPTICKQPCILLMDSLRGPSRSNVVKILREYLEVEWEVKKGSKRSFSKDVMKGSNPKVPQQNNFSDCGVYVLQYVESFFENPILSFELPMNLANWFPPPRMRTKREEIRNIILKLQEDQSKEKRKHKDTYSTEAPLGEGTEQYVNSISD

[3] = target: T4, Sentrin-specific protease 8 (Homo sapiens, UniProt Q96LD8); type: functional
T4 sequence (Q96LD8 whole entry): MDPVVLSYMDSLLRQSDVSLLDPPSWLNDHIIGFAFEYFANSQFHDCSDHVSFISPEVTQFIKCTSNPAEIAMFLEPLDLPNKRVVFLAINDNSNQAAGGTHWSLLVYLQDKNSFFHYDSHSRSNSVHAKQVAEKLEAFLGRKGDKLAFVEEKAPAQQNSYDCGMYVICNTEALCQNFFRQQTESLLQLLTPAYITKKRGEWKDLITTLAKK

[4] = target: T4, Sentrin-specific protease 8; type: functional; remark: listed apart in the source
[5] = target: T4, Sentrin-specific protease 8; type: functional; remark: listed apart in the source
Caspase-6 = target: T5, Caspase-6 (Homo sapiens, UniProt P55212); assay: human caspase-6 inhibitors, dose response, biochemical, VEID-R110 fluorescence, cherry-pick (AID 720632)
T5 sequence (P55212 whole entry): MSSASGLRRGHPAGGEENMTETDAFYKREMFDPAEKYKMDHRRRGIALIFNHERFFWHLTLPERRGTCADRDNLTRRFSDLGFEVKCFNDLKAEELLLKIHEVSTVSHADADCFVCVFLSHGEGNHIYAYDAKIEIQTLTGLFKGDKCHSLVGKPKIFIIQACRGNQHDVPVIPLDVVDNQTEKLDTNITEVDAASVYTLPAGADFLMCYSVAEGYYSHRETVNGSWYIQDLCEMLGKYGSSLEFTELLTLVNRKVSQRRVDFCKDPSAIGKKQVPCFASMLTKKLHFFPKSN

BJ [6] = assay: cells; type: functional, cell-based; details: Homo sapiens
[7] = growth suppression of PTEN-null colon cells, dose response, cell-based, HCT116 PTEN knockout (AID 1047); type: functional;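 also: HCT116 colon tumor cells with PTEN knocked out; cells exposed to compound for 60 hours before readout; potency for loss of cell viability measured by luminescence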
[8] = growth suppression of beta-catenin-knockout colon cells, dose response, cell-based, HCT116, human colon tumor (AID 1045); type: functional;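 also: HCT116 colon tumor cells with beta catenin knocked out; cells exposed to compound for 60 hours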
BJ [9] = assay: cytotoxicity toward BJ-TERT-LT-ST fibroblasts, dose response, cell-based, RAS-independent, luminescence (AID 1935); type: functional; details: Homo sapiens;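 also: BJ fibroblasts immortalized with TERT plus LT and ST oncogenes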
[10] = cytotoxicity toward DRD oncogenic fibroblasts, dose response, cell-based, non-viral oncogenic, luminescence (AID 1934); type: functional; details: Homo sapiens
[11] = THP-1 cell cytotoxicity, dose response, cytotoxicity control for non-replicating M. tuberculosis project (AID 489025); type: functional
[12] = HepG2 cell cytotoxicity, dose response, cytotoxicity control for non-replicating M. tuberculosis project (AID 489018); type: functional; details: Mycobacterium tuberculosis
[13] = Vero E6 cell cytotoxicity, dose response, cytotoxicity control for non-replicating M. tuberculosis project, secondary assay (AID 492998); type: functional, VeroE6; details: Vero C1008
[14] = target: Neurotensin receptor type 1 (Homo sapiens, UniProt P30989); type: functional;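 also: Image-based confirmatory dose-response assay measuring agonist activity at NTR1; NTR1-expressing U2OS osteosarcoma cells imaged for beta-arrestin GFP spot formation; agonist potency where compounds increase beta-arrestin recruitment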
cells = type: functional
[15] = target: T6, Replicative DNA helicase DnaB (Mycobacterium tuberculosis, UniProt P9WMR3); assay: DnaB intein splicing inhibitors, dose response, biochemical, cell-free fluorescence (AID 449749); type: functional
T6 sequence (P9WMR3 whole entry): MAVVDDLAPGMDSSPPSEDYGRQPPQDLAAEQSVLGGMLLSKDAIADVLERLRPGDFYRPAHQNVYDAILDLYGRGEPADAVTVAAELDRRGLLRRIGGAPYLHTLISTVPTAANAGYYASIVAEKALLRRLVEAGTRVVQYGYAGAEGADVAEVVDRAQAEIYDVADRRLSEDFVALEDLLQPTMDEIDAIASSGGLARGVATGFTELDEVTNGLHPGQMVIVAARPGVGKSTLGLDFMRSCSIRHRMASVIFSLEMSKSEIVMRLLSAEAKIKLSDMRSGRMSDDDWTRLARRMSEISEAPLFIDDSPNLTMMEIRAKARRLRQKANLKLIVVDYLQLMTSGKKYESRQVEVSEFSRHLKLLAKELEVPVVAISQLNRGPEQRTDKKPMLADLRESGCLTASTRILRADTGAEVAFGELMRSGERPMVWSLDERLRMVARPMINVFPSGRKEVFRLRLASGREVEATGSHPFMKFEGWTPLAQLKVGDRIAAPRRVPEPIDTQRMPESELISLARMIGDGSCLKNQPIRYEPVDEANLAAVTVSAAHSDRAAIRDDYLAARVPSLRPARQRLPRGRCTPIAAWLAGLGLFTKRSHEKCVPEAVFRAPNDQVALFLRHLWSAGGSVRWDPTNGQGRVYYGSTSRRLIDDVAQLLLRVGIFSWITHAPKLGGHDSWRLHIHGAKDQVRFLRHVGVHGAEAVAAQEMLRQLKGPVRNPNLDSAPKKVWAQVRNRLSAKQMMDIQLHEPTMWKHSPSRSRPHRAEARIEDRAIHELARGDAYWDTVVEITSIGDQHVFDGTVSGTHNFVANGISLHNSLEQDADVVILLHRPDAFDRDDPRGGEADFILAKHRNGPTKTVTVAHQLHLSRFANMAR

[16] = target: Heat shock protein HSP 90-alpha (Homo sapiens, UniProt P07900); type: functional, organism-based
Vero = Vero cell cytotoxicity, cytotoxicity control for flavivirus capping enzyme inhibitors (AID 588742); type: functional; details: Chlorocebus sabaeus
Protein RecA = target: T7, Protein RecA (Mycobacterium tuberculosis, UniProt P9WHJ3); assay: Fluorescence Cell-Free Homogeneous Dose Retest to Identify Inhibitors of RecA-Intein Splicing Activity. [Related pubchem assays (depositor defined):AID2097, AID2223, AID489010, AID492950]; type: functional
T7 sequence (P9WHJ3 whole entry): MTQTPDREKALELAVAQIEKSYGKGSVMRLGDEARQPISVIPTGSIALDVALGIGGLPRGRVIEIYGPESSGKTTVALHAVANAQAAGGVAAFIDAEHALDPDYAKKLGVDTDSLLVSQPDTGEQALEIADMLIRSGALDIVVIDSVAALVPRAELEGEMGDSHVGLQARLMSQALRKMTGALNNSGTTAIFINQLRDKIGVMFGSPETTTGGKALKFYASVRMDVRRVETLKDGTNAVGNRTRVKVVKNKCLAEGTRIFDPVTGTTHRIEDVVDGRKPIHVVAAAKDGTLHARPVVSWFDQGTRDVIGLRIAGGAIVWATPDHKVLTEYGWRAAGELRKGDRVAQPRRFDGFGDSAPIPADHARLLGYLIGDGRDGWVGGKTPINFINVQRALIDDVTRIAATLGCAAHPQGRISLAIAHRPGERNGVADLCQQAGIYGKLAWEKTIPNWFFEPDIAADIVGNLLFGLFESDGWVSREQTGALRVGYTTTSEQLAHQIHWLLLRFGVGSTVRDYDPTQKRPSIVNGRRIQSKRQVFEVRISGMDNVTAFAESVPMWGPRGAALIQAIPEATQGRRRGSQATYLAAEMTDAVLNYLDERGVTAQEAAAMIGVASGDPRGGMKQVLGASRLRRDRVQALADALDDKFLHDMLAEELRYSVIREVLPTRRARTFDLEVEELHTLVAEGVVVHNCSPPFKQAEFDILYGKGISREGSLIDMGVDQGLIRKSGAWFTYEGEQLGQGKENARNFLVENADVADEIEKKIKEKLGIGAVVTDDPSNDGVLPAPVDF

INS1 = assay: beta cell apoptosis inhibitors, cytokine rescue, dose response, luminescence, retest (AID 449756); type: functional, cell-based; details: Rattus norvegicus;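 also: cell death triggered by IL-1 beta plus TNF-alpha plus IFN-gamma mixture; protective hits raise ATP signal compared with cytokine alone wells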
Genome polyprotein = Genome polyprotein (dengue virus type 2, UniProt P29990); assay: Dengue-2 NS5 methyltransferase inhibitors, primary screen, biochemical, confirmation dose response (AID 588689); type: functional
[17] = Fluorescence-based cell-based high throughput dose response assay for inhibitors of the interaction of nucleotide-binding oligomerization domain containing 2 (NOD2) and the receptor-interacting serine-threonine kinase 2 (RIPK2).; type: functional; details: Homo sapiens
Beta Lactamase = Beta Lactamase (Pseudomonas aeruginosa, UniProt Q932Y6); assay: beta-lactamase reporter inhibitor potency, dose response, artefact control for NOD2-RIPK2 interaction inhibitor project, BLA reporter cells, FRET fluorescence (AID 651552); type: functional, cell-based
Chain of Beta Lactamase (Q932Y6 whole entry): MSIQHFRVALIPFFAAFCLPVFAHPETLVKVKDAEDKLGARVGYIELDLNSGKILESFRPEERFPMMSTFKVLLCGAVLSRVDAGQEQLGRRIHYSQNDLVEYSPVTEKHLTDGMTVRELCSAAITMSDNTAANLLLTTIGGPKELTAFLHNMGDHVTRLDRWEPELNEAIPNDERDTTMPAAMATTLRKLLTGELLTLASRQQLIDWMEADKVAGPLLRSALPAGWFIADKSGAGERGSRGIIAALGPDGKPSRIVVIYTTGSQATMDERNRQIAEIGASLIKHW

Chain of Genome polyprotein (P29990 2492-3391 limits assumed): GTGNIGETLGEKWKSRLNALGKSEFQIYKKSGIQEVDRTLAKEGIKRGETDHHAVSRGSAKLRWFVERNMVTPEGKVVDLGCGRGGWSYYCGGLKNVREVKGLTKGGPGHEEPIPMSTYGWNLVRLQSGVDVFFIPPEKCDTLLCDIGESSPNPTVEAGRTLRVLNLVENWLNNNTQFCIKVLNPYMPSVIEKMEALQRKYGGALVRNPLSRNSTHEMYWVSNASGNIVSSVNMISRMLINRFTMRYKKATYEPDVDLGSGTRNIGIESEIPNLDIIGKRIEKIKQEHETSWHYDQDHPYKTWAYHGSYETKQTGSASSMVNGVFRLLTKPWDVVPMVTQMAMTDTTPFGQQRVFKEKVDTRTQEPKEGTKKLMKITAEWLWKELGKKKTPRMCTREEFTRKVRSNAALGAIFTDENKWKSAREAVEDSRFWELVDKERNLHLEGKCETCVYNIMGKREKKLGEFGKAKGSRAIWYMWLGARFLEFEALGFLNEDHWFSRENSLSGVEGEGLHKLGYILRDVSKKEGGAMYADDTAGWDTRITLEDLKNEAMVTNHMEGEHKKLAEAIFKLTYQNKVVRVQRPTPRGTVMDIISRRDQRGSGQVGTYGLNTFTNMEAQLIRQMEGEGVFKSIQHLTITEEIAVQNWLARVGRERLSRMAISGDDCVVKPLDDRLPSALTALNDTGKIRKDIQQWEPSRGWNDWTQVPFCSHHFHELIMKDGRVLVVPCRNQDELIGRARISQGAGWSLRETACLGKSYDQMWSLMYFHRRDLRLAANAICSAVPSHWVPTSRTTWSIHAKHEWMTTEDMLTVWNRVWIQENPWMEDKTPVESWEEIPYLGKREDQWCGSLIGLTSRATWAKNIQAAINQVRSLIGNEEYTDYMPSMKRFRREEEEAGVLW
Chain of Neurotensin receptor type 1 (P30989 whole entry): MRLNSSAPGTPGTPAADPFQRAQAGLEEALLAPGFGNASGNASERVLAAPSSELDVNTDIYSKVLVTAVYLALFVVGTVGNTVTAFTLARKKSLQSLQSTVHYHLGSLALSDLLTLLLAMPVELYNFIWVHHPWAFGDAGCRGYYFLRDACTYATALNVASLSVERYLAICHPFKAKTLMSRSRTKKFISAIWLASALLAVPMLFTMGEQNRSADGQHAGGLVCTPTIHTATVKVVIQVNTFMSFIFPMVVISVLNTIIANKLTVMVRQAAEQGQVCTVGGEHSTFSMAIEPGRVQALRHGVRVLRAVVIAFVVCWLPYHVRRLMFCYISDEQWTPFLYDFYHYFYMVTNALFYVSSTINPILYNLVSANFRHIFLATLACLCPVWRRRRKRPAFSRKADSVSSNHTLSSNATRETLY

O=C1OC(Nc2cc(Br)cc3cccnc23)c2ccccc21 (stereo not given)
IC50 (Caspase-3): 2.67 µM (active)
IC50 [1]: 1.79 µM (active)
IC50 [2]: < 1.55 µM (active)
IC50 [3]: 1.63 µM (active)
IC50 [4]: > 100 µM (inactive)
IC50 [5]: 8.4 µM (active)
AC50 (Caspase-6): 11.1 µM (active)

CC1=NNC(=O)/C1=C\c1cn(-c2ccccc2)nc1-c1cccs1
EC50 (BJ [6]): 4.55 µM (inconclusive)
EC50 [7]: 7.38 µM (active)
EC50 [8]: 7.11 µM (active)
EC50 (BJ [9]): 13 µM (active)
EC50 [10]: 5.32 µM (active)
CC50 [11]: 7.31 µM (active)
CC50 [12]: 9.49 µM (active)
CC50 [13]: 9.79 µM (active)
EC50 [14]: 5.14 µM (active)
IC50 (cells): 24.8 µM (active)
AC50 [15]: 3.97 µM (active)
AC50 [16]: 1.87 µM (active)
CC50 (Vero): 10.9 µM (active)
EC50 (Protein RecA): 1.44 µM (active)
AC50 (INS1): 7.34 µM (active)
IC50 (Genome polyprotein): > 100 µM (active)
IC50 [17]: 1.55 µM (active)
IC50 (Beta Lactamase): 49.8 µM (inactive)
